Data set [1] has as its system Brassica rapa subsp. oleifera. In words: Herbicidal activity against Brassica rapa subsp. oleifera assessed as inhibition of rape root growth at 450 g/ha by pre-emergence herbicidal activity assay. Format: functional. The settings on record: read-out: GI.
The next data set relates to Pisum sativum. The experiment in a line: Herbicidal activity against 2 to 3 leaf stage Pisum sativum assessed as inhibition of plant growth at 450 g/ha in greenhouse by postemergence herbicidal activity assay. The data set is classed as functional. The settings on record: Lathyrus oleraceus, post-emergence; read-out: GI.
The test system of data set [2] is Brassica rapa subsp. oleifera. In words: Herbicidal activity against Brassica rapa subsp. oleifera assessed as inhibition of rape root growth. Format: functional, organism-based.
A further data set concerns Amaranthus retroflexus. The experiment in a line: Herbicidal activity against 2 to 3 leaf stage Amaranthus retroflexus assessed as inhibition of plant growth at 450 g/ha in greenhouse by postemergence herbicidal activity assay. Format: functional. Particulars: post-emergence, read-out: GI.
The subject of another data set is Brassica juncea. The experiment in a line: Herbicidal activity against two to three-leaf stage Brassica juncea assessed as inhibition of plant growth at 450 g/ha in greenhouse by post-emergence herbicidal activity assay. Format: functional. Particulars: read-out: GI.
A further data set concerns Oryza sativa. The experiment in a line: Herbicidal activity against two to three-leaf stage Oryza sativa (rice) assessed as inhibition of plant growth at 450 g/ha in greenhouse by postemergence herbicidal activity assay. Format: organism-based. The settings on record: in vivo, other.
The next data set has as its system Echinochloa crus-galli. In words: Herbicidal activity against 2 to 3 leaf stage Echinochloa crus-galli (barnyard grass) assessed as inhibition of plant growth at 450 g/ha in greenhouse by postemergence herbicidal activity assay. Format: functional. Particulars: Echinochloa crus-galli, post-emergence; read-out: GI.
Data set [3] is described as follows: Inhibition of Oryza sativa (rice) PDHc by spectrophotometric assay.
For data set [4], the target named is T1, Pyruvate dehydrogenase complex (Pisum sativum, UniProt P52902+P52904).
T1 sequence (P52902 whole entry): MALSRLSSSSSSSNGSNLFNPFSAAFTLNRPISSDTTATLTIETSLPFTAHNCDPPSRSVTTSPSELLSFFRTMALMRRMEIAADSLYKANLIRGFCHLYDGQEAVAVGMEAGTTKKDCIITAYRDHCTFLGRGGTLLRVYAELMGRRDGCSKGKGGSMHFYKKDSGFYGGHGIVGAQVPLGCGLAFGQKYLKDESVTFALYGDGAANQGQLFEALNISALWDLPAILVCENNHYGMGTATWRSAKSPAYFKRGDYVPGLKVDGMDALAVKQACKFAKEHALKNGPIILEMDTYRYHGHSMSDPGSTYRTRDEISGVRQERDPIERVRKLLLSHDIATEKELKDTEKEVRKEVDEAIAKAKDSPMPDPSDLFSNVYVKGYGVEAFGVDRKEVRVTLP
T1 sequence (P52904 whole entry): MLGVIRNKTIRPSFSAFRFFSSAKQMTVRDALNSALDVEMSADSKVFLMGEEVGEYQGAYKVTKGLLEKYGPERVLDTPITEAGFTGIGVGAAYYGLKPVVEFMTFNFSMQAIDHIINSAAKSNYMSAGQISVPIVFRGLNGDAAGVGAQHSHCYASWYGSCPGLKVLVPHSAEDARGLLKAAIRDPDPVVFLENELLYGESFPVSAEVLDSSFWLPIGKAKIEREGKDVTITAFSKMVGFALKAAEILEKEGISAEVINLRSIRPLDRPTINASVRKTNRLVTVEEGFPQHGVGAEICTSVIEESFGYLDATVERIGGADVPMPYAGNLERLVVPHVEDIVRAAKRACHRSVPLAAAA
In words: Inhibition of Pisum sativum (pea) PDHc by spectrophotometric assay. Format: protein-complex assay, Lathyrus oleraceus.

Data set [5] has as its system Brassica rapa subsp. oleifera. The experiment in a line: Herbicidal activity against Brassica rapa subsp. oleifera assessed as inhibition of rape root growth at 450 g/ha by postemergence herbicidal activity assay. The settings on record: post-emergence, read-out: GI. Format: functional.

The IC50 is the concentration that gives 50% inhibition.

SMILES strings stand for the structures.

Take `COP(=O)([O-])C(OC(=O)COc1ccc(Cl)cc1Cl)c1ccco1.[Na+]` (stereo not given): the inhibition of growth at 450 g/ha in data set [1] worked out at 96%; in the data set with Pisum sativum, 98%; in the data set on Amaranthus retroflexus, 100%; in the data set on Brassica juncea, 92.5%; with Echinochloa crus-galli, 50%; in data set [5], 95%. In addition, the IC50 was determined as 0.0396 µM in data set [2], 41.1 µM in data set [3] and 6.96 µM in data set [4]. Also, in the data set on Oryza sativa, the “growth inhibition (GI)” value is 45%.

Values taken from ChEMBL document CHEMBL3044788, “α-(Substituted-phenoxyacetoxy)-α-heterocyclylmethylphosphonates: synthesis, herbicidal activity, inhibition on pyruvate dehydrogenase complex (PDHc), and application as postemergent herbicide against broadleaf weeds” (J Agric Food Chem, 2013).
